In ChEMBL document CHEMBL4834482, “Concise solid-phase synthesis enables derivatisation of YEATS domain cyclopeptide inhibitors for improved cellular uptake” (Bioorg Med Chem, 2021):

Legend:
Protein AF-9 [1] = biological target: T1, Protein AF-9 (Homo sapiens, UniProt P42568); test: Inhibition of AF9 YEATS domain (1 to 138 residues) (unknown origin) assessed as inhibition of probe-1 induced AF9 YEATS domain labelling incubated for 10 mins followed by UV-irradiation for 20 mins by Photo-cross linking based In-gel fluorescence scanning analysis
T1 sequence (P42568 whole entry): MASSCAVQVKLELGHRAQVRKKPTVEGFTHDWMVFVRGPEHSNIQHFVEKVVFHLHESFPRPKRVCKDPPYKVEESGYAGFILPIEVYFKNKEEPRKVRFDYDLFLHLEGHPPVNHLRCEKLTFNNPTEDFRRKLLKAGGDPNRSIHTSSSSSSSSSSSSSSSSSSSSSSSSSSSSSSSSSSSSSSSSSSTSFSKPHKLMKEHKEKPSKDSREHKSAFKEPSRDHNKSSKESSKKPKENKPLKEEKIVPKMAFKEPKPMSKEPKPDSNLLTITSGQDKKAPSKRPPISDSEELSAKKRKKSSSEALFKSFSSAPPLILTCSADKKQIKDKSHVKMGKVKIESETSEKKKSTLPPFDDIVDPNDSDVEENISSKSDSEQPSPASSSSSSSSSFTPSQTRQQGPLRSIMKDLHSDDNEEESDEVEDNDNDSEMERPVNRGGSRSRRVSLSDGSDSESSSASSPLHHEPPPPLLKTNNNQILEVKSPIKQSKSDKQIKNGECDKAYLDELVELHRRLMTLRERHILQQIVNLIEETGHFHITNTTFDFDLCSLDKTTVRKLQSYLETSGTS

Protein AF-9 [2] = biological target: T1, Protein AF-9; test: Binding affinity to AF9 YEATS domain (1 to 138 residues) (unknown origin) by isothermal titration calorimetry

SMILES | IC50 (Protein AF-9 [1]) [nM] | Kd (Protein AF-9 [2]) [nM]
CC(=O)N[C@@H](Cc1ccc(O)cc1)C(=O)NCC(=O)N[C@@H](CCCNC(=N)N)C(=O)N[C@@H](CCCCN)C(=O)N[C@@H](CCCCN)C(=O)N[C@@H](CCCNC(=N)N)C(=O)N[C@@H](CCCNC(=N)N)C(=O)N[C@@H](CCC(N)=O)C(=O)N[C@@H](CCCNC(=N)N)C(=O)N[C@@H](CCCNC(=N)N)C(=O)N[C@@H](CCCNC(=N)N)C(=O)NCCCC[C@@H]1NC(=O)[C@H]([C@@H](C)O)NC(=O)[C@@H](NC(=O)OCc2ccccc2)CCCCNC(=N)NCCC[C@@H](C(=O)N[C@@H](CCCCNC(=O)c2cnco2)C(N)=O)NC1=O | 1740 | 800
C[C@@H]1NC(=O)[C@H]([C@H](C)O)NC(=O)[C@@H](NC(=O)OCc2ccccc2)CCCCNC(=N)NCCC[C@H](C(=O)N[C@@H](CCCCNC(=O)c2cnco2)C(N)=O)NC1=O | 410 | 370
